The supplement of paper PMC10307832

How the values were obtained:
Test in all cases: relative viability (nuclei count vs DMSO), 5 days (fraction); higher = more cells survive
CX-5461 + Alpelisib = compound: Cc1cnc(CNC(=O)c2c(=O)c3ccc(N4CCCN(C)CC4)nc3n3c2sc2ccccc23)cn1 [CX-5461] + Cc1nc(NC(=O)N2CCC[C@H]2C(N)=O)sc1-c1ccnc(C(C)(C)C(F)(F)F)c1 [Alpelisib] (partner 2 µM)
How it was run: (§1)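 Values are medians from duplicate plates. Each reflects relative viability, defined as the nuclei count of treated wells over that of vehicle wells. Lung cancer cell lines in 1536-well plates were pin-tool dosed one day after seeding with one drug alone or with a fixed anchor-drug dose plus five library-drug doses (not always all listed) in √10 steps, then fixed, stained and imaged at 4× after 5 days.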

CX-5461 + Olaparib = compound: Cc1cnc(CNC(=O)c2c(=O)c3ccc(N4CCCN(C)CC4)nc3n3c2sc2ccccc23)cn1 [CX-5461] + O=C(c1cc(Cc2n[nH]c(=O)c3ccccc23)ccc1F)N1CCN(C(=O)C2CC2)CC1 [Olaparib] (partner 8 µM)
How it was run: as §1

IMD-0354 + Bortezomib = compound: O=C(Nc1cc(C(F)(F)F)cc(C(F)(F)F)c1)c1cc(Cl)ccc1O [IMD-0354] + CC(C)C[C@H](NC(=O)[C@H](Cc1ccccc1)NC(=O)c1cnccn1)B(O)O [Bortezomib] (partner 0.002 µM)
How it was run: as §1

IMD-0354 + Linsitinib = compound: O=C(Nc1cc(C(F)(F)F)cc(C(F)(F)F)c1)c1cc(Cl)ccc1O [IMD-0354] + C[C@]1(O)C[C@@H](c2nc(-c3ccc4ccc(-c5ccccc5)nc4c3)c3c(N)nccn32)C1 [Linsitinib] (partner 1 µM)
How it was run: as §1

Row | Cell Line | relative viability (CX-5461 + Alpelisib; first compound 0.01 µM) | relative viability (CX-5461 + Alpelisib; first compound 0.03162 µM) | relative viability (CX-5461 + Alpelisib; first compound 0.1 µM) | relative viability (CX-5461 + Alpelisib; first compound 0.3162 µM) | relative viability (CX-5461 + Alpelisib; first compound 1 µM) | relative viability (CX-5461 + Olaparib; first compound 0.01 µM) | relative viability (CX-5461 + Olaparib; first compound 0.03162 µM) | relative viability (CX-5461 + Olaparib; first compound 0.1 µM) | relative viability (CX-5461 + Olaparib; first compound 0.3162 µM) | relative viability (CX-5461 + Olaparib; first compound 1 µM) | relative viability (IMD-0354 + Bortezomib; first compound 0.04 µM) | relative viability (IMD-0354 + Bortezomib; first compound 0.1265 µM) | relative viability (IMD-0354 + Bortezomib; first compound 0.4 µM) | relative viability (IMD-0354 + Bortezomib; first compound 1.265 µM) | relative viability (IMD-0354 + Bortezomib; first compound 4 µM) | relative viability (IMD-0354 + Linsitinib; first compound 0.04 µM) | relative viability (IMD-0354 + Linsitinib; first compound 0.1265 µM) | relative viability (IMD-0354 + Linsitinib; first compound 0.4 µM) | relative viability (IMD-0354 + Linsitinib; first compound 1.265 µM) | relative viability (IMD-0354 + Linsitinib; first compound 4 µM)
1 | 201T | 1.01 | 1.05 | 1.01 | 1.03 | 1 | 0.888 | 0.841 | 0.856 | 0.84 | 0.793 | 1.12 | 1.1 | 0.928 | 0.924 | 0.361 | 1.13 | 1.01 | 1.02 | 1.06 | 0.385
2 | NCI-H2126 | 0.794 | 0.784 | 0.717 | 0.78 | 0.772 | 0.956 | 0.974 | 0.924 | 0.968 | 0.863 | 1.17 | 1.12 | 0.89 | 0.744 | 0.425 | 0.644 | 0.685 | 0.715 | 0.577 | 0.316
3 | HOP-62 | 1.12 | 1.09 | 1 | 1.35 | 1.05 | 0.315 | 0.355 | 0.287 |  | 0.254 | 0.954 | 0.836 | 0.661 | 0.227 | 0.0871 | 1.02 | 0.898 | 0.48 | 0.93 | 0.206
4 | CAL-12T | 1.25 | 1.17 |  | 1.37 | 0.546 | 0.732 | 0.747 | 0.699 | 0.634 | 0.508 | 1.03 | 0.963 | 0.682 | 0.177 | 0.18 | 0.771 | 0.754 | 0.895 | 0.152 | 0.164
5 | NCI-H520 | 0.841 | 0.945 | 0.856 | 0.712 | 0.619 | 0.309 | 0.315 | 0.261 | 0.277 | 0.184 | 0.681 | 0.579 | 0.389 | 0.186 | 0.208 | 1.16 | 0.816 | 0.469 | 0.187 | 0.179
6 | NCI-H1755 | 0.899 | 1.01 | 0.929 | 0.973 | 0.919 | 0.85 | 0.929 | 0.819 | 0.806 | 0.818 | 1.16 | 1.07 | 0.454 | 0.358 | 0.177 | 0.998 | 1.02 | 0.665 | 0.666 | 0.22
7 | NCI-H2023 | 0.646 | 0.606 |  | 0.57 | 0.0938 | 0.445 | 0.354 |  | 0.248 | 0.0686 | 1.02 | 0.97 | 0.843 | 0.114 | 0.081 | 0.81 | 0.569 | 0.558 | 0.197 | 0.121
8 | NCI-H2009 | 1.12 | 1.14 | 1.12 | 1.13 | 0.681 | 0.631 | 0.621 | 0.616 | 0.672 | 0.565 | 0.973 | 0.878 | 0.771 | 0.105 | 0.0845 | 1.16 | 1.12 | 1.02 | 0.465 | 0.139
